How the values were obtained:
Gram-negative bacteria [1] = assay: Inhibition of biofilm formation, summary over strains; format: cell-based; conditions: maximal tested concentration 31.3 µg/mL
Procedure: (§1) The determination of MICs was performed according to Chlumsky et al.. Briefly, 96-well flat-bottomed microtiter plates were inoculated with 75 µL (for biofilm formation) or 100 µL (for preformed biofilm) of bacterial suspension (A625nm 0.08 to 0.1) in technical triplicates and were then carefully mixed with the dilution series of the test substances (24 h cultivation at 25 °C for S. Infantis, 37 °C for other strains) or were directly cultivated to preform biofilms (18 h). For a positive control of bacterial growth, the inoculum was mixed with a pure sterile medium. Furthermore, the sterile medium was included in the plate as a marker of potential microbial contamination. To evaluate planktonic cells growth (MICPC80) and further growth of biofilm cells (MICBC80), the optical density of the content of the microtiter plates was measured spectrophotometrically at 625 nm before and after 24 h (for biofilm formation) of cultivation or before and after additional 20 h incubation with the tested compound (for preformed biofilm). […] To evaluate the inhibition of biofilm formation (MICBF80) and reduction in preformed biofilms (MICBR80), biomass was quantified using crystal violet staining, and its metabolic activity (MICBM80 and MICMPB80) was estimated by using the MTT (thiazyl tetrazolium bromide, Sigma-Aldrich, USA) reduction assay, both measured spectrophotometrically at 595 nm. […]

Gram-negative bacteria [2] = assay: Inhibition of planktonic growth, summary over strains; format: cell-based; conditions: at maximal tested concentration (RLs 1000 µg/mL, UA 31.3 µg/mL)
Procedure: as §1

[3] = system: S. Enteritidis ATCC 13076; assay: MIC for biofilm formation (crystal violet staining); format: cell-based, Salmonella enterica Enteritidis; conditions: for MICBF80: ≥80% prevention, 24 h
Procedure: Ten concentrations of NAC, RLs, and UA were tested to determine the minimum inhibitory concentration for planktonic growth, and subsequently, the six highest concentrations were applied on preformed biofilms to evaluate the biofilm eradication ability of the compounds. MIC was defined as the lowest substance concentration able to inhibit at least 80% of microbial growth (MICPC80 for planktonic cells, MICBC80 for further growth of biofilm cells), inhibit 80% of metabolic activity (MICBM80 for biofilm metabolic activity, MICMPB80 for metabolic activity of preformed biofilm), prevent biofilm formation by at least 80% (MICBF80 for biofilm formation), or reduce a preformed biofilm by at least 80% (MICBR80 for biofilm reduction). The results of MICs are summarized in Table 1 (planktonic cells) and Table 2 (biofilm-associated cells).
The determination of MICs was performed according to Chlumsky et al.. […] To evaluate planktonic cells growth (MICPC80) and further growth of biofilm cells (MICBC80), the optical density of the content of the microtiter plates was measured spectrophotometrically at 625 nm before and after 24 h (for biofilm formation) of cultivation or before and after additional 20 h incubation with the tested compound (for preformed biofilm). […] To evaluate the inhibition of biofilm formation (MICBF80) and reduction in preformed biofilms (MICBR80), biomass was quantified using crystal violet staining, and its metabolic activity (MICBM80 and MICMPB80) was estimated by using the MTT (thiazyl tetrazolium bromide, Sigma-Aldrich, USA) reduction assay, both measured spectrophotometrically at 595 nm.
All inhibitions were calculated using the formula of Chlumsky et al. below (Equation (1)):(1) A625(595)nm inhibition (%)=A625(595)nm (control) – A625(595)nm(natural substance)/A625(595)nm (control)× 100 where A625(595)nm (control) is the absorbance of bacterial suspension/biofilm itself, and A625(595)nm(natural substance) is the absorbance of the bacterial suspension/biofilm with the added natural substance (NAC, RLs, and UA). […]

[4] = system: S. Enteritidis ATCC 13076; assay: CLSM analysis, biofilm removal (preformed biofilm); format: cell-based, Salmonella enterica Enteritidis; conditions: 20 h exposure, mean ± SD; for Thickness (µm) subCBM80: substance at subinhibitory concentration
Procedure: Biofilm prevention and removal analyses were performed using previously determined minimum inhibitory and subinhibitory concentrations for metabolic activity (MICBM80, subCBM80; MICMPB80, subCMPB80) of NAC, RLs, and UA specific for each tested strain. Selected concentrations were used to evaluate the inhibition of biofilm formation (biofilm prevention) and the reduction in previously formed biofilms (biofilm removal) for the same set of microorganisms, with the exception of S. Infantis, which was excluded from the analysis due to its inability to form biofilm in the selected microtiter plate. Biofilm prevention and removal were observed using CLSM with specific staining to distinguish between live and membrane-compromised cells. Images were analyzed to evaluate (i). the total volume of the biomass, (ii). ratios of live and membrane-compromised cells, and (iii). to calculate biofilm volume reduction for individual organisms after the respective treatment types. The total biofilm volume was normalized by the area of the well and expressed as an average biofilm thickness. Complete data are provided in Supplementary Materials (Tables S1–S8).
At first, bacterial suspensions were cultivated in microtiter plates to produce overnight biofilms (18 h). […] cells were then washed out, and the remaining biofilms were further cultivated for an additional 20 h with selected compounds. Following biofilm cultivation, biomass was observed using CLSM with live/membrane-compromised cell staining. Biomass images from biofilm removal treatments were similar to results from biofilm prevention, where biomass was highly diversified across the bacterial species and strains. Visually, biomass images were fairly consistent within the quadruplicates for each tested organism. Non-treated biofilms of S. aureus contained consistent biomass spread across the well (S. aureus 816) or grown around the edges (S. aureus 1241). […]
For both inhibition and reduction of biofilms, overnight cultures from BHI were diluted in TSB + 1% Glc to reach an absorbance of 0.08 to 0.1 at 625 nm. […]

Gram-negative bacteria [5] = assay: Inhibition of biofilm metabolic activity, summary over strains; format: cell-based; conditions: maximal tested concentration 31.3 µg/mL
Procedure: as §1

[6] = system: tested food-borne pathogens; assay: MIC for bacterial growth, summary over all tested strains; format: cell-based; conditions: this study
Procedure: as §1

[7] = system: Haemophilus influenza, Pseudomonas aeruginosa, and Streptococcus pneumoniae; parameters: method as in PMID 29234086, PMID 31022884, PMID 27492531; conditions: clinical pathogens; cited from earlier work

SMILES | maximum inhibition (MICBF80), range over strains (Gram-negative bacteria [1]) | maximum inhibition of planktonic growth (MICPC80), range over strains (Gram-negative bacteria [2]) | maximal achieved inhibition (MICBF80 not reached) ([3]; within tested concentrations) [%] | MICBF80 [3] | Thickness (µm) subCBM80 [4] [µm] | maximum inhibition (MICBM80), range over strains (Gram-negative bacteria [5]) | MIC for bacterial growth, range over strains [6] | MIC needed for biofilm reduction [7] | Thickness (µm) MICBM80 ([4]; substance at its MIC) [µm]
CC(=O)c1c(O)c(C)c(O)c2c1OC1=CC(=O)C(C(C)=O)C(=O)C12C (single isomer, unassigned; (+)) [UA, (+)-usnic acid] | 10–47% | 20–42% | 25 | > 31.3 µg/mL | 203 ± 19.8 | 16–47% | – | – | –
CC(=O)N[C@@H](CS)C(=O)O [NAC, N-Acetyl-L-cysteine] | – | – | – | 12,500 µg/mL | 229 ± 54.9 | – | 3130–12,500 µg/mL | 2500–10,000 µg/mL | 212 ± 16.6
